Experimental data as given in PubChem BioAssay AID2060883 (Molecular Pharmacology Branch, DTP, NCI, 2025).

System: 843782-103-R-J1-PDC complex spheroid viability
Assay: Anticancer human tumor 843782-103-R-J1-PDC patient-derived lung adenocarcinoma cell line growth inhibition [RAS]
Conditions: for IC50: curve of first compound; for viability, T/C: stronger effect = lower value; active = viability on the fitted dose curve at most 10% of control; inactive = the rest
From the text: RAS pathway inhibitors in Combinations in Complex Spheroids
A high-throughput screen of multi-cell type tumor spheroids was designed to identify active combinations of RAS pathway inhibitors and targeted small molecules. Complex spheroids include a stromal component modeled by human endothelial cells (HUVEC) and fibroblasts modeled by human mesenchymal stem cells (MSCs). The concentration ranges selected for each drug and investigational agent were based upon clinically achievable concentrations if the clinical Cmax of the agent was known.
Compounds. The drugs and investigational agents: abemaciclib (NSC768073), cobimetinib (NSC768068), divarasib (GDC6063, NSC841802), docetaxel (NSC628503), GDC-1971 (RLY-1971, NSC841576), gemcitabine (NSC613327), inavolisib (NSC800729), ipatasertib (NSC767898), KB-0742 (NSC834161), MRTX-1133 (NSC836407), osimertinib (NSC779217), RMC-4630 (NSC839698), RMC-6236 (NSC851965), RMC-6291 (NSC852671), Ro-3306 (NSC812927), sapanisertib (NSC764658), SN-38 (NSC673596), staurosporine (NSC755774), SY5609 (NSC837396), and tovorafenib (DAY101, NSC766906), were obtained from the National Cancer Institute (NCI) Developmental Therapeutics Program Chemical Repository. The FDA-approved anticancer drug set is available from the NCI Developmental Therapeutics Program. […] The stock solutions were prepared in dimethyl sulfoxide (DMSO, Sigma-Aldrich, St. Louis, MO, cat. D2650) at 800-fold the tested concentration and stored at -70 degrees C prior to their use. All drugs and investigational agents were tested over a range starting from a high concentration at or near the clinical Cmax and decreasing in half-log increments. If the clinical Cmax for an agent had not been determined, the highest concentration tested was 10 microM.
Cell Culture. All cells were maintained in an incubator at 37 degrees C and 5% CO2 with 95% humidity. The PDC lines were cultured according to standard operating procedures established by the NCI PDMR. All PDCs were thawed and cultured in Matrigel-coated flasks prepared with a working solution of 1X Ham's F-12 nutrient mix, without supplementation (Invitrogen, Waltham, MA, cat. 11765054), 100 U/mL penicillin-streptomycin (Invitrogen, cat. 15140122), and 2.5% Matrigel (Corning Inc., Corning, NY, cat. 354248) for the first three passages. The 362531-283-R-J2-PDC and 782815-120-R-J1-PDC lines were cultured in 6C/Colon 1B media, which includes advanced DMEM/F-12 (Thermo Fisher Scientific, cat. 12634028), 10 mM HEPES (Thermo Fisher Scientific, cat. 15630080), 1X GlutaMAX supplement (Thermo Fisher Scientific, cat. 35050061), 0.1 mg/mL primocin (InvivoGen, San Diego, CA, cat. ant-pm-2), 10% defined fetal bovine serum, heat inactivated (HyClone Laboratories Inc., Logan, UT, cat. SH30070.03HI), 50% L-WRN conditioned media (ATCC, cat. CRL-3276), 1.25 mM N-Acetyl-L-cysteine (Sigma-Aldrich, cat. A9165), 10 mM nicotinamide (Sigma-Aldrich, cat. N0636), 1X B-27 supplement (Thermo Fisher Scientific, cat. 17504044), 1X N-2 supplement (Thermo Fisher Scientific, cat. 17502048), 50 ng/mL human EGF (Thermo Fisher Scientific, cat. PHG0311), and 10 microM Y-27632 dihydrochloride (Tocris Bioscience, cat. 1254). The K12877-001-R-J1-PDC line was cultured in 6I media, which includes all 6C/Colon 1B media plus 10 ng/mL human FGF-10 (PeproTech, cat. 100-26), 1 ng/mL human FGF-2 (PeproTech, cat. 100-18B), 1 µM prostaglandin E2 (Tocris Bioscience, cat. 2296), […] hydrocortisone (Sigma-Aldrich, cat. H4001), and […] bovine insulin (Sigma-Aldrich, cat. I6634). The K86415-001-R-J1-PDC line was cultured in 6D media, which includes all 6C/Colon 1B media components minus the L-WRN conditioned media. The 485176-168-R4-J1-PDC was cultured in PANC media, which includes all 6C/Colon 1B media plus 100 ng/mL human FGF-10 (PeproTech, cat. 100-26), 500 nM SB-431542 (Selleckchem, cat. S1067), and 10 nM gastrin (Tocris Bioscience, cat. 3006). […]
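Also: viability read after seven days of compound exposure.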

NC1c2ccccc2OC12CCN(c1cnc3c(N4CCCc5ncccc54)n[nH]c3n1)CC2 (centres undefined) + C=CC(=O)N1CCN(c2nc(OCC3CCCN3C)nc3c(F)c(-c4nc(N)cc(C)c4C(F)(F)F)c(Cl)cc23)C(C)C1
39.9 nM: IC50 (second compound 0.1 µM)
44.1 nM: IC50 (second compound 0.316 µM)
37.2 nM: IC50 (second compound 1 µM)
inactive: viability, T/C (second compound 0.00316 µM, first compound 0.0316 µM) 58.4% | viability, T/C (second compound 0.00316 µM, first compound 0.1 µM) 35.8% | viability, T/C (second compound 0.00316 µM, first compound 0.316 µM) 30.5% | viability, T/C (second compound 0.00316 µM, first compound 1 µM) 23.7% | viability, T/C (second compound 0.00316 µM, first compound 3.16 µM) 30.8% | viability, T/C (second compound 0.00316 µM, first compound 10 µM) 16.8% | viability, T/C (second compound 0.01 µM, first compound 0.0316 µM) 49.1% | viability, T/C (second compound 0.01 µM, first compound 0.1 µM) 35.5% | viability, T/C (second compound 0.01 µM, first compound 0.316 µM) 28.5% | viability, T/C (second compound 0.01 µM, first compound 1 µM) 22.8% | viability, T/C (second compound 0.01 µM, first compound 3.16 µM) 20.3% | viability, T/C (second compound 0.01 µM, first compound 10 µM) 20.2% | viability, T/C (second compound 0.0316 µM, first compound 0.0316 µM) 44.9% | viability, T/C (second compound 0.0316 µM, first compound 0.1 µM) 34.4% | viability, T/C (second compound 0.0316 µM, first compound 0.316 µM) 30.4% | viability, T/C (second compound 0.0316 µM, first compound 1 µM) 25.6% | viability, T/C (second compound 0.0316 µM, first compound 3.16 µM) 24.7% | viability, T/C (second compound 0.0316 µM, first compound 10 µM) 21.3% | viability, T/C (second compound 0.1 µM, first compound 0.0316 µM) 55% | viability, T/C (second compound 0.1 µM, first compound 0.1 µM) 34% | viability, T/C (second compound 0.1 µM, first compound 0.316 µM) 28.2% | viability, T/C (second compound 0.1 µM, first compound 1 µM) 26.2% | viability, T/C (second compound 0.1 µM, first compound 3.16 µM) 22.9% | viability, T/C (second compound 0.1 µM, first compound 10 µM) 15% | viability, T/C (second compound 0.316 µM, first compound 0.0316 µM) 54.4% | viability, T/C (second compound 0.316 µM, first compound 0.1 µM) 39.8% | viability, T/C (second compound 0.316 µM, first compound 0.316 µM) 29.7% | viability, T/C (second compound 0.316 µM, first compound 1 µM) 23.1% | viability, T/C (second compound 0.316 µM, first compound 3.16 µM) 20.9% | viability, T/C (second compound 0.316 µM, first compound 10 µM) 22.1% | viability, T/C (second compound 1 µM, first compound 0.0316 µM) 52.1% | viability, T/C (second compound 1 µM, first compound 0.1 µM) 38.3% | viability, T/C (second compound 1 µM, first compound 0.316 µM) 25.2% | viability, T/C (second compound 1 µM, first compound 1 µM) 25.4% | viability, T/C (second compound 1 µM, first compound 3.16 µM) 25.3% | viability, T/C (second compound 1 µM, first compound 10 µM) 18%
< 31.6 nM: IC50 (second compound 0.01 µM) | IC50 (second compound 0.0316 µM)
49.3 nM: IC50 (second compound 0.00316 µM)

CC(Nc1ccc2c(c1)OCCn1cc(N3C(=O)OCC3C(F)F)nc1-2)C(N)=O (centres undefined) + CCn1c(-c2cc(N3CCN(C)CC3)cnc2C(C)OC)c2c3cc(ccc31)-c1csc(n1)CC(NC(=O)C1CC1C)C(=O)N1CCCC(N1)C(=O)OCC(C)(C)C2
< 31.6 nM: IC50 (second compound 0.003 µM) | IC50 (second compound 0.00949 µM) | IC50 (second compound 0.03 µM) | IC50 (second compound 0.0949 µM) | IC50 (second compound 0.3 µM)
inactive: viability, T/C (second compound 0.000949 µM, first compound 0.0316 µM) 58% | viability, T/C (second compound 0.000949 µM, first compound 0.1 µM) 48.6% | viability, T/C (second compound 0.000949 µM, first compound 0.316 µM) 29.5% | viability, T/C (second compound 0.000949 µM, first compound 1 µM) 17.9% | viability, T/C (second compound 0.000949 µM, first compound 3.16 µM) 15.6% | viability, T/C (second compound 0.000949 µM, first compound 10 µM) 8.54% | viability, T/C (second compound 0.003 µM, first compound 0.0316 µM) 46.8% | viability, T/C (second compound 0.003 µM, first compound 0.1 µM) 31.7% | viability, T/C (second compound 0.003 µM, first compound 0.316 µM) 23.1% | viability, T/C (second compound 0.003 µM, first compound 1 µM) 14.1% | viability, T/C (second compound 0.00949 µM, first compound 0.0316 µM) 28% | viability, T/C (second compound 0.00949 µM, first compound 0.1 µM) 17.1% | viability, T/C (second compound 0.00949 µM, first compound 0.316 µM) 17% | viability, T/C (second compound 0.00949 µM, first compound 1 µM) 10.7% | viability, T/C (second compound 0.03 µM, first compound 0.0316 µM) 17.1% | viability, T/C (second compound 0.03 µM, first compound 0.1 µM) 13.6% | viability, T/C (second compound 0.03 µM, first compound 0.316 µM) 10.8% | viability, T/C (second compound 0.0949 µM, first compound 0.0316 µM) 15.7% | viability, T/C (second compound 0.0949 µM, first compound 0.1 µM) 10.8% | viability, T/C (second compound 0.3 µM, first compound 0.0316 µM) 16.4% | viability, T/C (second compound 0.3 µM, first compound 0.1 µM) 10.4%
active: viability, T/C (second compound 0.003 µM, first compound 3.16 µM) 10.7% | viability, T/C (second compound 0.003 µM, first compound 10 µM) 5.42% | viability, T/C (second compound 0.00949 µM, first compound 3.16 µM) 9.87% | viability, T/C (second compound 0.00949 µM, first compound 10 µM) 3.83% | viability, T/C (second compound 0.03 µM, first compound 1 µM) 8.39% | viability, T/C (second compound 0.03 µM, first compound 3.16 µM) 6.08% | viability, T/C (second compound 0.03 µM, first compound 10 µM) 2.39% | viability, T/C (second compound 0.0949 µM, first compound 0.316 µM) 9.99% | viability, T/C (second compound 0.0949 µM, first compound 1 µM) 6.85% | viability, T/C (second compound 0.0949 µM, first compound 3.16 µM) 4.41% | viability, T/C (second compound 0.0949 µM, first compound 10 µM) 3.16% | viability, T/C (second compound 0.3 µM, first compound 0.316 µM) 7.76% | viability, T/C (second compound 0.3 µM, first compound 1 µM) 7.43% | viability, T/C (second compound 0.3 µM, first compound 3.16 µM) 5.53% | viability, T/C (second compound 0.3 µM, first compound 10 µM) 2.56%
77 nM: IC50 (second compound 0.000949 µM)
